pIC50: −log10 of the molar value. Where two headings read alike, the source gives them in different places.
Assays:
[1] = target: topoisomerase II isolated from Giardia lamblia; test: Topoisomerase II inhibition (Giardia lamblia enzyme); type: biochemical; settings: 50% inhibition of topoisomerase II isolated from Giardia lamblia; read-out: IC50 Topoisomerase Activity II G.l.
[2] = system: Pneumocystis carinii; test: In vivo activity against Pneumocystis carinii (lung cyst counts and toxicity); settings: for Toxicity: toxicity scale, larger value = more severe, values greater than 2 indicate deaths of some animals
[3] = system: oligomer d(GCGCAATTGCGC)2; test: DNA thermal melting (increase in Tm of oligomer); type: binding; settings: increase in thermal melting of the oligomer d(GCGCAATTGCGC)2; MES buffer pH 6.0
Procedure: (§1) Thermal melting curves for DNA and its complexes with compounds from Examples 4, 6, and 7-9 are determined as previously described in F.A. Tanious, et al., J.Biomol. Structure & Dynamics 11:1063 (1994) and W.D. Wilson, et al., Biochemistry 32:4098 (1993), by following the adsorption change at 260 nm as a function of temperature. Tm values were determined from first derivative plots. Compounds are compared by the increase in Tm (ΔTm=Tm of complex - Tm of the free nucleic acid) they produce in MES buffer (0.01M 2-(N-morpholino) ethanesulfonic acid, 0.001 M EDTA, 0.1 M NaCl adjusted to pH 6.0) at saturating amounts of compound (a ratio of 0.3 moles of compound to nucleic acid bases) unless otherwise indicated.

[4] = system: Cryptosporidium parvum; test: Activity against Cryptosporidium parvum in suckling mice (oocyst counts); type: in vivo; settings: suckling ICR outbred Swiss mice; for Oocysts: mean oocyst count, control 36.71; for % Reduction: reduction of mean oocyst count versus control
[5] = target: T1, topoisomerase II isolated from Drosophila melanogaster (Drosophila melanogaster, UniProt P15348); test: Topoisomerase II inhibition (Drosophila melanogaster enzyme); type: biochemical
T1 construct: topoisomerase II isolated from Drosophila melanogaster; from tissue
T1 sequence (P15348 1-1447): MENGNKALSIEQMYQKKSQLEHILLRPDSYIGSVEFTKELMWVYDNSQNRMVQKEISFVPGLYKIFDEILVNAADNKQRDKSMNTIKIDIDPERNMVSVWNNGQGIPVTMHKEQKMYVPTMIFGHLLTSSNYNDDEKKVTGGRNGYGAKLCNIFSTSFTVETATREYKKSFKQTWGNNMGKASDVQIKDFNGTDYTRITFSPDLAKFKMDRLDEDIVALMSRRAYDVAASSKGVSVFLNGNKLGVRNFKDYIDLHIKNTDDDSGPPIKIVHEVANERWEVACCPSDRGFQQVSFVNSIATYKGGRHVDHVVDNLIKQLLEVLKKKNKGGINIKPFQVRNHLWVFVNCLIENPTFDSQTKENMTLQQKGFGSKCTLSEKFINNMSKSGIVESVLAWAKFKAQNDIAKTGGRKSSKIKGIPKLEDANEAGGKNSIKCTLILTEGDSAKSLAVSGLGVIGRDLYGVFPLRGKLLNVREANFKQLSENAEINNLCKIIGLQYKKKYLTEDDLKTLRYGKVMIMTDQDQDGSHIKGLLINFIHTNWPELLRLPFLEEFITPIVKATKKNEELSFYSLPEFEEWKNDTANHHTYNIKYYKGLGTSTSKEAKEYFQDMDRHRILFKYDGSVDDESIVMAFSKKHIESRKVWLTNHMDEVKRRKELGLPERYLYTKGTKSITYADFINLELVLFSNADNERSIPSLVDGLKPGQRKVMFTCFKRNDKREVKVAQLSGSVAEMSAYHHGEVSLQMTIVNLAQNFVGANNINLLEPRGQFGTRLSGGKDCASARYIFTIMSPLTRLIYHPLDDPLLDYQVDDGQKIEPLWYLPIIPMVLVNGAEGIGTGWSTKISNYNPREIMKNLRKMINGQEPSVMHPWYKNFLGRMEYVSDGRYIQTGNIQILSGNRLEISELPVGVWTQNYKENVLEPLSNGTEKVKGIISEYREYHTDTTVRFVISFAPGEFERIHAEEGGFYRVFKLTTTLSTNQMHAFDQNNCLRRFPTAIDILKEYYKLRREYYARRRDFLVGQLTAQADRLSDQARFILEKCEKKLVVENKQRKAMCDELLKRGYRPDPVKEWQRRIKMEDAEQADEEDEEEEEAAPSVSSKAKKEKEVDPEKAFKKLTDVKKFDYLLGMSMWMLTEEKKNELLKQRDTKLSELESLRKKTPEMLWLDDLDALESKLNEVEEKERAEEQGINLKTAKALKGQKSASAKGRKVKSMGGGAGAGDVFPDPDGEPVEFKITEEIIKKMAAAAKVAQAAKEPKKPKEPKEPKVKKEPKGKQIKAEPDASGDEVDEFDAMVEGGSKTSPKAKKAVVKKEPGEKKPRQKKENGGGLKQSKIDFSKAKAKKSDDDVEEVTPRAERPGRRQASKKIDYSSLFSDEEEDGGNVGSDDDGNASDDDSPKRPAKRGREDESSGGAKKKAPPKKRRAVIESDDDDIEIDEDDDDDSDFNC

[6] = system: Giardia lamblia; test: Inhibition of growth of Giardia lamblia in in vitro culture; type: cell-based
[7] = target: topoisomerase I isolated from Pneumocystis carinii; test: Topoisomerase I inhibition (Pneumocystis carinii enzyme); type: biochemical; settings: 50% inhibition of topoisomerase I isolated from Pneumocystis carinii
[8] = system: poly A poly T; test: DNA thermal melting (increase in Tm of poly A poly T); type: binding; settings: MES buffer pH 6.0, 0.1 M NaCl, ratio of 0.3 moles of compound to nucleic acid bases
Procedure: as §1

[9] = Pneumocystis carinii, iv, read-out: cyst/g lung (% of control)
[10] = Giardia duodenalis; read-out: IC50 Giardia lamblia

With `N=C(N)c1ccc(-c2ccc(-c3ccc(C(=N)N)cc3)o2)cc1` [Compound 1, 2,5-bis(4-amidinophenyl)furan] the pIC50 [1] was 6.00 to 6.30, the response vs control in vivo at 0.027 µM [2, 9] was 55.9% and the response vs control in vivo at 0.27 µM [2, 9] was 4.8%. For the same compound, the response vs control in vivo at 2.7 µM [2, 9] was 8.3%, the response vs control in vivo at 13.3 µM [2, 9] was 2.1% and the response vs control in vivo at 66.3 µM ([2]; Pneumocystis carinii, po, read-out: cyst/g lung (% of control)) was 28.4%. The Toxicity ([2]; dosage 0.027 µM/kg/day intravenous) was 0, the Toxicity ([2]; dosage 0.27 µM/kg/day intravenous) was 0 and the Toxicity ([2]; dosage 2.7 µM/kg/day intravenous) was 0. It also gave a Toxicity ([2]; dosage 13.3 µM/kg/day intravenous) of 0, a Toxicity ([2]; dosage 66.3 µM/kg/day, oral dosage by gavage) of 0 and a ΔTm Oligomer [3] of 11.7 °C. The Oocysts [4] was 6.6, the “% Reduction” value [4] was 66% and the pIC50 [5] was 5.70. For the same compound, the pIC50 ([6]; Giardia duodenalis, read-out: IC50 Giardia lamblia) was 6.70, the pIC50 [7] was 4.00 and the ΔTm DNA [8] was 25 °C.

With `c1cc(-c2ccc(-c3ccc(C4=NCCCN4)cc3)o2)ccc1C1=NCCCN1` [Compound 3, 2,5-di-p[2(3,4,5,6-tetrahydropyrimidyl)phenyl]furan] the pIC50 [1] was 6.00 to 6.30, the response vs control in vivo at 10.9 µM [2, 9] was 0.4% and the Toxicity ([2]; dosage 10.9 µM/kg/day intravenous) was “+2”. For the same compound, the ΔTm Oligomer [3] was 13.5 °C, the pIC50 [5] was 5.60 and the pIC50 [6, 10] was 7.22. The pIC50 [7] was < 4.00 and the ΔTm DNA [8] was > 28 °C.

With `CC(C)NC(=N)c1ccc(-c2ccc(-c3ccc(C(=N)NC(C)C)cc3)o2)cc1` [Compound 13, 2,5-bis[4-(N-isopropylamidino)phenyl]furan] the pIC50 [1] was 6.00 to 6.30, the Toxicity ([2]; dosage 10.8 µM/kg/day intravenous) was 0 and the Oocysts [4] was 2.13. For the same compound, the “% Reduction” value [4] was 94.2%, the pIC50 [5] was 4.52 to 4.82 and the pIC50 [6, 10] was 6.85. For the same compound, the ΔTm DNA [8] was 23.1 °C.
